Test results reported in PubChem BioAssay AID1963967 (Molecular Pharmacology Branch, DTP, NCI, 2024).
pIC50: −log10 of the molar value.

System: 855422-203-R-J1-PDC spheroids with HUVEC/MSC, viability
Test: Anticancer human tumor 855422-203-R-J1-PDC patient-derived bladder carcinoma cell line growth inhibition [PI3K]
Details: for pIC50: curve of first compound; for viability, T/C: stronger effect = lower value
Method in brief: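 Spheroid viability read-out. Co-cultures contained the tumor line plus HUVEC and human MSCs. Each agent was paired with a PI3K inhibitor (inavolisib, alpelisib, duvelisib, copanlisib) across half-log dilutions starting at clinical Cmax, or at 10 microM when Cmax was unknown.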

[1] = second compound 0.0316 µM, first compound 0.0316 µM
[2] = second compound 0.0316 µM, first compound 0.1 µM
[3] = second compound 0.0316 µM, first compound 0.316 µM
[4] = second compound 0.0316 µM, first compound 1 µM
[5] = second compound 0.0316 µM, first compound 3.16 µM
[6] = second compound 0.0316 µM, first compound 10 µM
[7] = second compound 0.1 µM, first compound 0.0316 µM
[8] = second compound 0.1 µM, first compound 0.1 µM
[9] = second compound 0.1 µM, first compound 0.316 µM
[10] = second compound 0.1 µM, first compound 1 µM
[11] = second compound 0.1 µM, first compound 3.16 µM
[12] = second compound 0.1 µM, first compound 10 µM
[13] = second compound 0.316 µM, first compound 0.0316 µM
[14] = second compound 0.316 µM, first compound 0.1 µM
[15] = second compound 0.316 µM, first compound 0.316 µM
[16] = second compound 0.316 µM, first compound 1 µM
[17] = second compound 0.316 µM, first compound 3.16 µM
[18] = second compound 0.316 µM, first compound 10 µM
[19] = second compound 1 µM, first compound 0.0316 µM
[20] = second compound 1 µM, first compound 0.1 µM
[21] = second compound 1 µM, first compound 0.316 µM
[22] = second compound 1 µM, first compound 1 µM
[23] = second compound 1 µM, first compound 3.16 µM
[24] = second compound 1 µM, first compound 10 µM
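Further: agents incubated with spheroids for one week before read-out.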
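Wherever viability, T/C is given: 100% = DMSO vehicle-treated control wells.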

CC1(C)CCC(Nc2ncc(C(F)(F)F)c(-c3c[nH]c4c(P(C)(C)=O)c(C#N)ccc34)n2)CN1 (centres undefined) + COc1c(OCCCN2CCOCC2)ccc2c3n(c(=NC(=O)c4cnc(N)nc4)nc12)CCN3 gave a pIC50 (second compound 0.00316 µM) of over 7.50, a pIC50 (second compound 0.01 µM) of over 7.50 and a pIC50 (second compound 0.0316 µM) of over 7.50. It also gave a pIC50 (second compound 0.1 µM) of over 7.50, a pIC50 (second compound 0.316 µM) of over 7.50 and a pIC50 (second compound 1 µM) of over 7.50. The viability, T/C (second compound 0.00316 µM, first compound 0.0316 µM) was 24.9%, the viability, T/C (second compound 0.00316 µM, first compound 0.1 µM) was 20.8% and the viability, T/C (second compound 0.00316 µM, first compound 0.316 µM) was 22.4%. For the same molecule, the viability, T/C (second compound 0.00316 µM, first compound 1 µM) was 23.3%, the viability, T/C (second compound 0.00316 µM, first compound 3.16 µM) was 24.3% and the viability, T/C (second compound 0.00316 µM, first compound 10 µM) was 2.48%. It also gave a viability, T/C (second compound 0.01 µM, first compound 0.0316 µM) of 21.2%, a viability, T/C (second compound 0.01 µM, first compound 0.1 µM) of 18.6% and a viability, T/C (second compound 0.01 µM, first compound 0.316 µM) of 21.3%. It also gave a viability, T/C (second compound 0.01 µM, first compound 1 µM) of 19.8%, a viability, T/C (second compound 0.01 µM, first compound 3.16 µM) of 20.4% and a viability, T/C (second compound 0.01 µM, first compound 10 µM) of 3.49%. The viability, T/C [1] was 16.7%, the viability, T/C [2] was 17.2% and the viability, T/C [3] was 13.9%. The viability, T/C [4] was 16.9%, the viability, T/C [5] was 16.6% and the viability, T/C [6] was 1.53%. For the same molecule, the viability, T/C [7] was 12.7%, the viability, T/C [8] was 10.7% and the viability, T/C [9] was 12.4%. It also gave a viability, T/C [10] of 10.1%, a viability, T/C [11] of 8.84% and a viability, T/C [12] of 1.32%. The viability, T/C [13] was 5.48%, the viability, T/C [14] was 4.79% and the viability, T/C [15] was 5.47%. For the same molecule, the viability, T/C [16] was 6.03%, the viability, T/C [17] was 3.06% and the viability, T/C [18] was 1.28%. The viability, T/C [19] was 1.83%, the viability, T/C [20] was 2.45% and the viability, T/C [21] was 2.02%. It also gave a viability, T/C [22] of 2.08%, a viability, T/C [23] of 1.22% and a viability, T/C [24] of 1.25%.
C[C@@H](NC(=O)c1ncnc(N)c1Cl)c1ncc(C(=O)Nc2cc(C(F)(F)F)c(Cl)cn2)s1 + Cc1nc(NC(=O)N2CCCC2C(N)=O)sc1-c1ccnc(C(C)(C)C(F)(F)F)c1 showed a pIC50 (second compound 0.0316 µM) of under 5.00, a pIC50 (second compound 0.1 µM) of under 5.00 and a pIC50 (second compound 0.316 µM) of under 5.00. It also gave a pIC50 (second compound 1 µM) of 5.34, a pIC50 (second compound 3.16 µM) of over 7.50 and a pIC50 (second compound 10 µM) of over 7.50. It also gave a viability, T/C [1] of 97.8%, a viability, T/C [2] of 85.9% and a viability, T/C [3] of 118%. The viability, T/C [4] was 100%, the viability, T/C [5] was 118% and the viability, T/C [6] was 109%. The viability, T/C [7] was 72.7%, the viability, T/C [8] was 86.8% and the viability, T/C [9] was 104%. For the same molecule, the viability, T/C [10] was 91.2%, the viability, T/C [11] was 111% and the viability, T/C [12] was 93.4%. For the same molecule, the viability, T/C [13] was 73.1%, the viability, T/C [14] was 85.9% and the viability, T/C [15] was 94.3%. For the same molecule, the viability, T/C [16] was 85.8%, the viability, T/C [17] was 94.6% and the viability, T/C [18] was 60.9%. It also gave a viability, T/C [19] of 70.1%, a viability, T/C [20] of 67.2% and a viability, T/C [21] of 51.2%. For the same molecule, the viability, T/C [22] was 68.6%, the viability, T/C [23] was 62.3% and the viability, T/C [24] was 23.4%. For the same molecule, the viability, T/C (second compound 3.16 µM, first compound 0.0316 µM) was 39.3%, the viability, T/C (second compound 3.16 µM, first compound 0.1 µM) was 44.6% and the viability, T/C (second compound 3.16 µM, first compound 0.316 µM) was 30.9%. For the same molecule, the viability, T/C (second compound 3.16 µM, first compound 1 µM) was 42.8%, the viability, T/C (second compound 3.16 µM, first compound 3.16 µM) was 33.5% and the viability, T/C (second compound 3.16 µM, first compound 10 µM) was 14.3%. It also gave a viability, T/C (second compound 10 µM, first compound 0.0316 µM) of 25%, a viability, T/C (second compound 10 µM, first compound 0.1 µM) of 18.9% and a viability, T/C (second compound 10 µM, first compound 0.316 µM) of 24.3%. The viability, T/C (second compound 10 µM, first compound 1 µM) was 18.8%, the viability, T/C (second compound 10 µM, first compound 3.16 µM) was 11.7% and the viability, T/C (second compound 10 µM, first compound 10 µM) was 4.33%.
